Converted amounts (≈) assume the structure as drawn.
Key:
Staphylococcus aureus [1] = assay: Antimicrobial activity against methicillin-resistant Staphylococcus aureus 573/12 after 18 hrs by two-fold serial microdilution method; assay type: functional; details: 573/12, 18 h
[2] = system: Staphylococcus epidermidis; assay: Antimicrobial activity against methicillin-resistant Staphylococcus epidermidis 469/11 after 18 hrs by two-fold serial microdilution method; assay type: functional; details: 469/11, 18 h
HT-29 [3] = assay: Antiproliferative activity against human HT-29 cells assessed as growth inhibition after 72 hrs by SRB method; assay type: functional, cell-based; details: Homo sapiens, HT-29, 72 h
Staphylococcus aureus [4] = assay: Antimicrobial activity against Staphylococcus aureus […] 4163 after 18 hrs by two-fold serial microdilution method; assay type: functional
LoVo [5] = assay: Antiproliferative activity against human LoVo cells assessed as growth inhibition after 72 hrs by SRB method; assay type: functional, cell-based; details: Homo sapiens, LoVo, 72 h
[6] = system: Staphylococcus epidermidis; assay: Antimicrobial activity against Staphylococcus epidermidis ATCC 12228 after 18 hrs by two-fold serial microdilution method; assay type: functional; details: ATCC 12228, 18 h
[7] = system: Staphylococcus epidermidis; assay: Antimicrobial activity against methicillin-resistant Staphylococcus epidermidis 489/11 after 18 hrs by two-fold serial microdilution method; assay type: functional; details: 489/11, 18 h
[8] = Antiproliferative activity against human LS180 cells assessed as growth inhibition after 72 hrs by SRB method; assay type: functional, cell-based; details: Homo sapiens, LS180, 72 h
Staphylococcus aureus [9] = assay: Antimicrobial activity against methicillin-resistant Staphylococcus aureus 456/11 after 18 hrs by two-fold serial microdilution method; assay type: functional; details: 456/11, 18 h
[10] = system: Staphylococcus epidermidis; assay: Antimicrobial activity against methicillin-resistant Staphylococcus epidermidis 461/11 after 18 hrs by two-fold serial microdilution method; assay type: functional; details: 461/11, 18 h
Staphylococcus aureus [11] = assay: Antimicrobial activity against methicillin-resistant Staphylococcus aureus 585/12 after 18 hrs by two-fold serial microdilution method; assay type: functional; details: 585/12, 18 h
Staphylococcus aureus [12] = assay: Antimicrobial activity against methicillin-resistant Staphylococcus aureus 514/11 after 18 hrs by two-fold serial microdilution method; assay type: functional; details: 514/11, 18 h
[13] = system: Staphylococcus epidermidis; assay: Antimicrobial activity against methicillin-resistant Staphylococcus epidermidis 459/11 after 18 hrs by two-fold serial microdilution method; assay type: functional; details: 459/11, 18 h
HT-29 [14] = assay: Selectivity index, ratio of IC50 for mouse BALB/3T3 cells to IC50 for human HT-29 cells; assay type: functional
[15] = system: Staphylococcus epidermidis; assay: Antimicrobial activity against methicillin-resistant Staphylococcus epidermidis 470/11 after 18 hrs by two-fold serial microdilution method; assay type: functional; details: 470/11, 18 h
Staphylococcus aureus [16] = assay: Antimicrobial activity against Staphylococcus aureus ATCC 29213 after 18 hrs by two-fold serial microdilution method; assay type: functional; details: ATCC 29213, 18 h
Staphylococcus aureus [17] = assay: Antimicrobial activity against methicillin-resistant Staphylococcus aureus 452/11 after 18 hrs by two-fold serial microdilution method; assay type: functional; details: 452/11, 18 h
LoVo [18] = assay: Resistance index, ratio of IC50 for human LoVo/DX cells to IC50 for human LoVo cells
[19] = Selectivity index, ratio of IC50 for mouse BALB/3T3 cells to IC50 for human LS180 cells; assay type: functional
Staphylococcus aureus [20] = assay: Antimicrobial activity against methicillin-resistant Staphylococcus aureus 537/12 after 18 hrs by two-fold serial microdilution method; assay type: functional; details: 537/12, 18 h
Staphylococcus aureus [21] = assay: Antimicrobial activity against methicillin-resistant Staphylococcus aureus 462/11 after 18 hrs by two-fold serial microdilution method; assay type: functional; details: 462/11, 18 h
[22] = system: Staphylococcus epidermidis; assay: Antimicrobial activity against methicillin-resistant Staphylococcus epidermidis 468/11 after 18 hrs by two-fold serial microdilution method; assay type: functional; details: 468/11, 18 h
[23] = system: Staphylococcus epidermidis; assay: Antimicrobial activity against methicillin-resistant Staphylococcus epidermidis 460/11 after 18 hrs by two-fold serial microdilution method; assay type: functional; details: 460/11, 18 h
[24] = Antiproliferative activity against human HL60 cells assessed as growth inhibition after 72 hrs by MTT assay; assay type: functional, cell-based; details: HL-60, 72 h
Staphylococcus aureus [25] = assay: Antimicrobial activity against Staphylococcus aureus ATCC 6538 after 18 hrs by two-fold serial microdilution method; assay type: functional; details: ATCC 6538, 18 h
[26] = Selectivity index, ratio of IC50 for mouse BALB/3T3 cells to IC50 for human SW707 cells; assay type: functional
[27] = Antiproliferative activity against human SW707 cells assessed as growth inhibition after 72 hrs by SRB method; assay type: functional, cell-based; details: Homo sapiens, SW707, 72 h
[28] = system: Staphylococcus epidermidis; assay: Antimicrobial activity against methicillin-resistant Staphylococcus epidermidis 466/11 after 18 hrs by two-fold serial microdilution method; assay type: functional; details: 466/11, 18 h
[29] = Selectivity index, ratio of IC50 for mouse BALB/3T3 cells to IC50 for human LoVo/DX cells; assay type: functional
[30] = Antiproliferative activity against human vincristine-resistant HL60/Vinc cells assessed as growth inhibition after 72 hrs by MTT assay; assay type: functional
LoVo [31] = assay: Selectivity index, ratio of IC50 for mouse BALB/3T3 cells to IC50 for human LoVo cells; assay type: functional
Staphylococcus aureus [32] = assay: Antimicrobial activity against methicillin-resistant Staphylococcus aureus 572/12 after 18 hrs by two-fold serial microdilution method; assay type: functional; details: 572/12, 18 h
[33] = Antiproliferative activity against human doxorubicin-resistant LoVo/DX cells assessed as growth inhibition after 72 hrs by SRB method; assay type: functional, cell-based
[34] = system: Staphylococcus epidermidis; assay: Antimicrobial activity against methicillin-resistant Staphylococcus epidermidis 467/11 after 18 hrs by two-fold serial microdilution method; assay type: functional; details: 467/11, 18 h
[35] = system: Staphylococcus epidermidis; assay: Antimicrobial activity against Staphylococcus epidermidis ATCC 35984 after 18 hrs by two-fold serial microdilution method; assay type: functional; details: ATCC 35984, 18 h
HL-60 = assay: Selectivity index, ratio of IC50 for mouse BALB/3T3 cells to IC50 for human HL60 cells; assay type: functional
Staphylococcus aureus [36] = assay: Antimicrobial activity against Staphylococcus aureus ATCC 25923 after 18 hrs by two-fold serial microdilution method; assay type: functional; details: ATCC 25923, 18 h
[37] = system: Staphylococcus epidermidis; assay: Antimicrobial activity against methicillin-resistant Staphylococcus epidermidis 488/11 after 18 hrs by two-fold serial microdilution method; assay type: functional; details: 488/11, 18 h
Staphylococcus aureus [38] = assay: Antimicrobial activity against methicillin-resistant Staphylococcus aureus 522/12 after 18 hrs by two-fold serial microdilution method; assay type: functional; details: 522/12, 18 h
BALB/3T3 = assay: Antiproliferative activity against mouse BALB/3T3 cells assessed as growth inhibition after 72 hrs by SRB method; assay type: cell-based; details: BALB/3T3, 72 h
Staphylococcus aureus [39] = assay: Antimicrobial activity against methicillin-resistant Staphylococcus aureus 586/12 after 18 hrs by two-fold serial microdilution method; assay type: functional; details: 586/12, 18 h

## CC[C@@H](C(=O)[C@@H](C)[C@@H](O)[C@H](C)[C@@H]1O[C@@H]([C@@H](CC)C(=O)NCc2cn([C@H]3C[C@H](n4cc(F)c(=O)[nH]c4=O)O[C@@H]3CO)nn2)CC[C@@H]1C)[C@H]1O[C@]2(C=C[C@@H](O)[C@]3(CC[C@@](C)([C@H]4CC[C@](O)(CC)[C@H](C)O4)O3)O2)[C@H](C)C[C@@H]1C
Staphylococcus aureus [1]
  MIC: 60.4 µM (≈ 64 µg/mL)
[2]
  MIC: 60.4 µM (≈ 64 µg/mL)
HT-29 [3]
  IC50: 30.1 µM
Staphylococcus aureus [4]
  MIC: 30.2 µM (≈ 32 µg/mL)
LoVo [5]
  IC50: 41.2 µM
[6]
  MIC: 30.2 µM (≈ 32 µg/mL)
[7]
  MIC: 30.2 µM (≈ 32 µg/mL)
[8]
  IC50: 32.8 µM
Staphylococcus aureus [9]
  MIC: 60.4 µM (≈ 64 µg/mL)
[10]
  MIC: 30.2 µM (≈ 32 µg/mL)
Staphylococcus aureus [11]
  MIC: 121 µM (≈ 128 µg/mL)
Staphylococcus aureus [12]
  MIC: 242 µM (≈ 256 µg/mL)
[13]
  MIC: 30.2 µM (≈ 32 µg/mL)
HT-29 [14]
  Selectivity Index: 0.98
[15]
  MIC: 30.2 µM (≈ 32 µg/mL)
Staphylococcus aureus [16]
  MIC: 60.4 µM (≈ 64 µg/mL)
Staphylococcus aureus [17]
  MIC: 60.4 µM (≈ 64 µg/mL)
LoVo [18]
  Ratio IC50: 1.71
[19]
  Selectivity Index: 0.9
Staphylococcus aureus [20]
  MIC: 242 µM (≈ 256 µg/mL)
Staphylococcus aureus [21]
  MIC: 60.4 µM (≈ 64 µg/mL)
[22]
  MIC: 60.4 µM (≈ 64 µg/mL)
[23]
  MIC: 30.2 µM (≈ 32 µg/mL)
[24]
  IC50: 28.7 µM
Staphylococcus aureus [25]
  MIC: 30.2 µM (≈ 32 µg/mL)
[26]
  Selectivity Index: 0.85
[27]
  IC50: 35 µM
[28]
  MIC: 30.2 µM (≈ 32 µg/mL)
[29]
  Selectivity Index: 0.42
[30]
  inhibition (INH): 20%
LoVo [31]
  Selectivity Index: 0.72
Staphylococcus aureus [32]
  MIC: 242 µM (≈ 256 µg/mL)
[33]
  IC50: 70.4 µM
[34]
  MIC: 60.4 µM (≈ 64 µg/mL)
[35]
  MIC: 30.2 µM (≈ 32 µg/mL)
HL-60
  Selectivity Index: 1.03
Staphylococcus aureus [36]
  MIC: 30.2 µM (≈ 32 µg/mL)
[37]
  MIC: 121 µM (≈ 128 µg/mL)
Staphylococcus aureus [38]
  MIC: 242 µM (≈ 256 µg/mL)
BALB/3T3
  IC50: 29.6 µM
Staphylococcus aureus [39]
  MIC: 121 µM (≈ 128 µg/mL)
